Experimental data reported in US11292807B2 (OCEANS LTD., priority 2015, dated 2022).
Where two headings read alike, the source gives them in different places.

Legend:
MDA-MB [1] = details: MDA-MB
MDA-MB [2] = experiment: cells; details: Homo sapiens, read-out: Average cell viability, MDA-MB
PC3 = experiment: CIMA assay, cell viability, PC3; details: for Fold change in viability AVG: PC3
[3] = system: U373 (glioblastoma-astrocytoma); experiment: CIMA assay, cell viability, U373; details: for Fold change in viability AVG: U373
[4] = system: SKOV3 (ovarian adenocarcinoma); experiment: CIMA assay, cell viability, SKOV3; details: for Fold change in viability AVG: SKOV
[5] = system: THP-1 (acute monocytic leukemia); experiment: CIMA assay, cell viability, THP-1; details: for Fold change in viability AVG: THP-1
Experimental: (§1) Stock solutions of the extracts were prepared in dimethylsulfoxide (DMSO) at 10 mg/mL and stored in 200 μl aliquots at −20° C. until analysis. This preparation ensured that the DMSO delivered to cells in culture never exceeded 1%.
(§2) Prepared extracts were assessed following chronic exposure conditions in which cells were seeded at 2×10^3 cells/well (96 well-plate) and incubated with test compounds for 72 h. Each compound was evaluated over a range of concentrations (0, 10, 25, 50 or 100 μg/ml). Cell proliferation was initially assessed using a standard colorimetric indicator of metabolic activity (CIMA) assay. In this assay, tetrazole reduction was evaluated as a measure of metabolic function that evaluates mitochondrial activity to determine the extent of cell proliferation within a culture. This assay is based on the reduction of yellow tetrazolium salt to purple formazan by mitochondrial reductases enzyme in viable cells, resulting in a color changed that confers a change in absorbance.

[6] = CIMA assay, cell viability, CCD1079SK; details: human, Average cell viability, CCD
Experimental: as §1, §2

[7] = system: CCD1079SK (fibroblast, noncancerous but proliferating); experiment: CIMA assay, cell viability, CCD1079SK; details: CCD
Experimental: as §1, §2

A549 (lung carcinoma) = experiment: CIMA assay (colorimetric indicator of metabolic activity), cell viability, A549; details: for Fold change in viability AVG: A549

## CC/C=C\C/C=C\C/C=C\C/C=C\CCC(=O)OC(COC(=O)CCCCCCC/C=C\C/C=C\C/C=C\CC)COC1OC(CO)C(O)C(O)C1O (stereo not shown) [Compound 14, MGDG C18:3/C16:4]
MDA-MB [1]; sample at 1 ug/mL
  MDA-MB AVG: 1.13
MDA-MB [1]; sample at 10 ug/mL
  MDA-MB AVG: 1.11
MDA-MB [1]; sample at 50 ug/mL
  MDA-MB AVG: 0.74
MDA-MB [1]; sample at 100 ug/mL
  MDA-MB AVG: 0.20
MDA-MB [1]; 1 ug/mL
  Fold change in viability AVG: 1.13
MDA-MB [1]; 10 ug/mL
  Fold change in viability AVG: 1.11
MDA-MB [1]; 50 ug/mL
  Fold change in viability AVG: 0.74
MDA-MB [1]; 100 ug/mL
  Fold change in viability AVG: 0.20
MDA-MB [2]; 1 ug/mL
  viability at 1 µg/mL: 104%
MDA-MB [2]; 10 ug/mL
  viability at 10 µg/mL: 102%
MDA-MB [2]; 50 ug/mL
  viability at 50 µg/mL: 68%
MDA-MB [2]; 100 ug/mL
  viability at 100 µg/mL: 18%
PC3; Homo sapiens, PC-3, read-out: Average cell viability, PC3, 1 ug/mL
  viability at 1 µg/mL: 103%
PC3; Homo sapiens, PC-3, read-out: Average cell viability, PC3, 10 ug/mL
  viability at 10 µg/mL: 98%
PC3; Homo sapiens, PC-3, read-out: Average cell viability, PC3, 50 ug/mL
  viability at 50 µg/mL: 66%
PC3; Homo sapiens, PC-3, read-out: Average cell viability, PC3, 100 ug/mL
  viability at 100 µg/mL: 12%
PC3; PC3, sample at 1 ug/mL
  PC3 AVG: 1.07
PC3; PC3, sample at 10 ug/mL
  PC3 AVG: 1.01
PC3; PC3, sample at 50 ug/mL
  PC3 AVG: 0.68
PC3; PC3, sample at 100 ug/mL
  PC3 AVG: 0.13
PC3; 1 ug/mL
  Fold change in viability AVG: 1.07
PC3; 10 ug/mL
  Fold change in viability AVG: 1.01
PC3; 50 ug/mL
  Fold change in viability AVG: 0.68
PC3; 100 ug/mL
  Fold change in viability AVG: 0.13
[3]; Homo sapiens, U373 MG, read-out: Average cell viability, U373, 1 ug/mL
  viability at 1 µg/mL: 109%
[3]; Homo sapiens, U373 MG, read-out: Average cell viability, U373, 10 ug/mL
  viability at 10 µg/mL: 100%
[3]; Homo sapiens, U373 MG, read-out: Average cell viability, U373, 50 ug/mL
  viability at 50 µg/mL: 41%
[3]; Homo sapiens, U373 MG, read-out: Average cell viability, U373, 100 ug/mL
  viability at 100 µg/mL: 9%
[3]; U373, sample at 1 ug/mL
  U373 AVG: 1.10
[3]; U373, sample at 10 ug/mL
  U373 AVG: 1.02
[3]; U373, sample at 50 ug/mL
  U373 AVG: 0.42
[3]; U373, sample at 100 ug/mL
  U373 AVG: 0.09
[3]; 1 ug/mL
  Fold change in viability AVG: 1.10
[3]; 10 ug/mL
  Fold change in viability AVG: 1.02
[3]; 50 ug/mL
  Fold change in viability AVG: 0.42
[3]; 100 ug/mL
  Fold change in viability AVG: 0.09
[4]; Homo sapiens, SK-OV-3, read-out: Average cell viability, SKOV, 1 ug/mL
  viability at 1 µg/mL: 109%
[4]; Homo sapiens, SK-OV-3, read-out: Average cell viability, SKOV, 10 ug/mL
  viability at 10 µg/mL: 97%
[4]; Homo sapiens, SK-OV-3, read-out: Average cell viability, SKOV, 50 ug/mL
  viability at 50 µg/mL: 92%
[4]; Homo sapiens, SK-OV-3, read-out: Average cell viability, SKOV, 100 ug/mL
  viability at 100 µg/mL: 67%
[4]; 1 ug/mL
  Fold change in viability AVG: 1.17
[4]; 10 ug/mL
  Fold change in viability AVG: 1.05
[4]; 50 ug/mL
  Fold change in viability AVG: 0.89
[4]; 100 ug/mL
  Fold change in viability AVG: 0.72
[5]; Homo sapiens, THP-1, read-out: Average cell viability, THP-1, 1 ug/mL
  viability at 1 µg/mL: 99%
[5]; Homo sapiens, THP-1, read-out: Average cell viability, THP-1, 10 ug/mL
  viability at 10 µg/mL: 100%
[5]; Homo sapiens, THP-1, read-out: Average cell viability, THP-1, 50 ug/mL
  viability at 50 µg/mL: 62%
[5]; Homo sapiens, THP-1, read-out: Average cell viability, THP-1, 100 ug/mL
  viability at 100 µg/mL: 51%
[5]; THP-1, sample at 1 ug/mL
  THP-1 AVG: 1.13
[5]; THP-1, sample at 10 ug/mL
  THP-1 AVG: 1.14
[5]; THP-1, sample at 50 ug/mL
  THP-1 AVG: 0.70
[5]; THP-1, sample at 100 ug/mL
  THP-1 AVG: 0.58
[5]; 1 ug/mL
  Fold change in viability AVG: 1.12
[5]; 10 ug/mL
  Fold change in viability AVG: 1.14
[5]; 50 ug/mL
  Fold change in viability AVG: 0.70
[5]; 100 ug/mL
  Fold change in viability AVG: 0.58
[6]; CCD1079SK fibroblast cells (noncancerous, proliferating), 1 ug/mL
  viability at 72 h, 1 ug/mL: 102%
[6]; CCD1079SK fibroblast cells (noncancerous, proliferating), 10 ug/mL
  viability at 72 h, 10 ug/mL: 96%
[6]; CCD1079SK fibroblasts (noncancerous, proliferating), 50 ug/mL
  viability at 72 h, 50 ug/mL: 49%
[6]; CCD1079SK fibroblasts (noncancerous, proliferating), 100 ug/mL
  viability at 72 h, 100 ug/mL: 19%
[7]; 1 ug/mL
  Fold change in viability AVG: 1.12
[7]; 10 ug/mL
  Fold change in viability AVG: 1.05
[7]; 50 ug/mL
  Fold change in viability AVG: 0.54
[7]; 100 ug/mL
  Fold change in viability AVG: 0.21
A549 (lung carcinoma); A549, sample at 1 ug/mL
  A549 AVG: 1.15
A549 (lung carcinoma); A549, sample at 10 ug/mL
  A549 AVG: 1.18
A549 (lung carcinoma); A549, sample at 50 ug/mL
  A549 AVG: 1.03
A549 (lung carcinoma); A549, sample at 100 ug/mL
  A549 AVG: 0.86
A549 (lung carcinoma); 1 ug/mL
  Fold change in viability AVG: 1.15
A549 (lung carcinoma); 10 ug/mL
  Fold change in viability AVG: 1.18
A549 (lung carcinoma); 50 ug/mL
  Fold change in viability AVG: 1.03
A549 (lung carcinoma); 100 ug/mL
  Fold change in viability AVG: 0.86
A549 (lung carcinoma); Homo sapiens, A549, read-out: Average cell viability, A549, 1 ug/mL
  viability at 1 µg/mL: 99%
A549 (lung carcinoma); Homo sapiens, A549, read-out: Average cell viability, A549, 10 ug/mL
  viability at 10 µg/mL: 101%
A549 (lung carcinoma); Homo sapiens, A549, read-out: Average cell viability, A549, 50 ug/mL
  viability at 50 µg/mL: 88%
A549 (lung carcinoma); Homo sapiens, A549, read-out: Average cell viability, A549, 100 ug/mL
  viability at 100 µg/mL: 74%
